Data reported in patent publication US9272978B2, “Hydroxy acid ester compound of substituted phenol, preparation method and medical use thereof” (West China Hospital, Sichuan University, priority 2010, dated 2016).

Legend:
[1] = mouse, rat or rabbit plasma, 37° C., 10 mg/ml solution, 0 min to 4 h, HPLC
Protocol: Three parallel solutions of propofol hydroxybutyrate of Example 1 with a concentration of 10 mg/ml were prepared, added into and mixed with the mouse, rat or rabbit plasma, which was pre-placed in water bath (37° C.), respectively.
Three parallel solutions of propofol hydroxyvalerate of Example 3 with a concentration of 10 mg/ml were prepared, added into and mixed with mouse, rat or rabbit plasma, which was pre-placed in water bath (37° C.), respectively.

[2] = tested on: Kunming mice; conditions: tail vein injection; for disappearance time of FRR (onset time) / recovery time (recovery of FRR): during determination of ED50; for Median effective dose (ED50), disappearance of forepaw righting reflex: up-and-down method
Protocol: (§1) 60 Kunming mice with half males and half females were randomly divided into the drug test group (propofol hydroxybutyrate of the present invention) (n=30) and the Diprivan™ control group (positive control drug Diprivan™) (n=30). Median effective doses (ED50) of the substituted phenol hydroxy acid ester and Diprivan™ were determined by the up-and-down method. In the test, the mice were injected with the drugs through the tail veins, with the disappearance of the forepaw righting reflex (FRR) of the mice as a judgment index of the end point of anesthesia; the recovery of FRR of the mice as an index of recovery from anesthesia.
as §1, with “hydroxyvalerate” for “hydroxybutyrate”, “FRR” for “the forepaw righting reflex (FRR)”

[3] = disclosed in WO200213810; cited from earlier work
[4] = disclosed in WO200213810; cited from earlier work; remark: listed apart in the source

Row | Compound | in vitro decomposition in the plasma into the active compound propofol [1] | anesthetic effect [2] | disappearance time of FRR (onset time) [2] | recovery time (recovery of FRR) [2] | Median effective dose (ED50), disappearance of forepaw righting reflex [2] | water-solubility [3] | stability in aqueous solution [4]
1 | CC(C)c1cccc(C(C)C)c1OC(=O)CCCO [propofol hydroxybutyrate, propofol ω-hydroxybutyrate] | can be rapidly decomposed into the active compound propofol | definite and reversible anesthetic effect | 45.3 ± 12.3 s | 235.6 ± 67.9 s | 52 mg/kg |  | 
2 | CC(C)c1cccc(C(C)C)c1OC(=O)CCCCO [propofol hydroxyvalerate, propofol ω-hydroxyvalerate] | can be rapidly decomposed into the active compound propofol |  | 46.1 ± 9.5 s | 256.1 ± 61.2 s | 60 mg/kg |  | 
3 | CC(C)c1cccc(C(C)C)c1OC(=O)CCC(=O)[O-].[Na+] [propofol succinic acid monoester sodium salt] |  |  |  |  |  | high water-solubility | unstable in aqueous solution
